Data set [1] concerns human epithelial squamous cell carcinoma cells (A431). As to the kind of experiment: Cell viability (NRU assay) after irradiation with varying incubation periods (2, 3 or 4 hours). The format is cell-based. To be noted: A431 cells, then red light 37 J/cm^2, NRU assay, individual replicates.
Experimental: Neutral red is an inert dye actively taken up and stored by viable (living) cells, an action which is unable to be performed by non-viable cells, therefore the level of neutral red taken up is directly proportional to the number of viable cells present following a given exposure. Following uptake of the dye, cells are lysed and the level of neutral red quantified using a plate reader.
After the relevant incubation period, the cells were irradiated with red light (37 J/cm^2; 635±2 nm; Aktilite, Galderma, UK).
The test system is the same in data set [2]. Kind of data set: PpIX fluorescence accumulation.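 Also: PpIX fluorescence accumulating inside A431 cells, read under dim light to limit photobleaching.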 The note with it: A431 cells.
Experimental: (§1) Briefly, cells were seeded at 2×10^4 cells per well in a 96 well plate and left to adhere overnight. Test solutions were prepared on the day of the assay and applied to the cells. The level of PpIX produced was monitored using a multi-well fluorescent plate reader with a 400 (±30) nm excitation filter and a 645 (±40) nm emission filter, with the level of fluorescence produced being directly proportional to the level of PpIX present. Readings were taken hourly for 6 hours and were conducted under low light conditions to reduce photobleaching of PpIX.
These were tested alongside equimolar concentrations of ALA, ALA and CP94 (3), MAL, and MAL and CP94 (3), with all test compounds being investigated in human dermal fibroblasts (84BR; FIGS. 2A and 2B), human epithelial squamous cell carcinoma cells (A431; FIGS. 3A and 3B) and human glioblastoma cells (U87MG; FIGS. 4A and 4B).
For data set [3] the test system is unchanged. As to the kind of experiment: PpIX fluorescence after varying incubation periods (2, 3 or 4 hours). To be noted: for PpIX fluorescence: A431 cells, individual replicates.
Experimental: as §1
Data set [4] relates to human dermal fibroblasts (84BR). Kind of data set: PDT efficacy: cell viability (NRU assay) following irradiation.
Experimental: (§2) To assess the effect of AP2-18 (8) on PpIX-induced PDT efficacy, the same three cell types were exposed to equimolar concentrations of ALA, ALA and CP94 (3), MAL, MAL and CP94 (3), and AP2-18 (8) (as described previously) and incubated in the dark for 4 hours. The level of PpIX accumulation was then quantified as before, prior to irradiation with red light (37 J/cm^2; 635±2 nm; Aktilite, Galderma, UK).
In data set [5] the test system is MRC-5 (human embryonic lung fibroblast) cells. As to the kind of experiment: Toxicity testing: neutral red uptake (NRU) assay, inherent (dark) toxicity. The note with it: 0.01% (v/v), positive control. On the procedure:
Control cells were incubated in standard cell culture medium.

The test system of data set [6] is human epithelial squamous cell carcinoma cells (A431). Kind of data set: PDT efficacy: cell viability (NRU assay) following irradiation. The format is cell-based. The note with it: 4 h dark incubation, red light 37 J/cm^2, normalised to blank control.
Experimental: as §2
Data set [7] concerns human glioblastoma cells (U87MG). The data set is described as above. The format is cell-based. To be noted: 500 μM (combinations: 500 μM each), 4 h dark incubation, red light 37 J/cm^2, normalised to blank control.
Experimental: as §2
The mark [8] stands for this setting: 250 μM (each drug), incubation time 2 hours, 250 µM.
The mark [9] stands for this setting: 250 μM (each drug), incubation time 3 hours, 250 µM.
Setting [10] is: 250 μM (each drug), incubation time 4 hours, 250 µM.
The mark [11] stands for this setting: 500 μM (each drug), incubation time 2 hours, 500 µM.
Setting [12] is: 500 μM (each drug), incubation time 3 hours, 500 µM.
The mark [13] stands for this setting: 500 μM (each drug), incubation time 4 hours, 500 µM.
Where [14] appears, read: 1000 μM (each drug), incubation time 2 hours, 1000 µM.
Where [15] appears, read: 1000 μM (each drug), incubation time 3 hours, 1000 µM.
[16] abbreviates: 1000 μM (each drug), incubation time 4 hours, 1000 µM.
Setting [17] is: 500 μM (each drug), incubation time 2 hours.
[18] abbreviates: 500 μM (each drug), incubation time 3 hours.
The mark [19] stands for this setting: 500 μM (each drug), incubation time 4 hours.
Where [20] appears, read: 1000 μM (each drug), incubation time 2 hours.
The mark [21] stands for this setting: 1000 μM (each drug), incubation time 3 hours.
[22] abbreviates: 1000 μM (each drug), incubation time 4 hours.

Where “and” joins values, the source holds several entries; their conditions need not be identical. Equal entries are not always repeated.

In the case of `NCC(=O)CCC(=O)O` [ALA, aminolevulinic acid], the cell viability in data set [1] (setting [8]) was 104.2825 and 103.9063 and 123.5695 and 112.4377 and 117.6227 and 97.71 and 44.14 and 34.7079 and 50.73; in data set [1] (setting [9]), 124.0654 and 135.6267 and 95.31 and 55.77 and 55.32 and 62.02 and 56.05 and 85.67 and 55.08 and 120.1384 and 57.18 and 77.31; in data set [1] (setting [10]), 82.01 and 64.97 and 20.14 and 125.0307 and 150.1618 and 127.1037 and 6.313 and 9.566 and 15.91; in data set [1] (setting [11]), 99.84 and 113.3557 and 112.7404 and 95.2285 and 69.94 and 82.25 and 65.56 and 62.54 and 64.53; in data set [1] (setting [12]) it was 118.05 and 77.38 and 69.99 and 77.18 and 78.53 and 70.11 and 42.15 and 44.3852 and 60.85 and 274.4678 and 51.1 and 55.1; in data set [1] (setting [13]), 67.69 and 28.73 and 8.056 and 111.2275 and 105.7573 and 29.3785 and 108.0828 and 59.78 and 39.7. Moreover, the cell viability in data set [1] (setting [14]) is 87.3 and 106.5283 and 118.4391 and 110.6882 and 113.0739 and 122.8714 and 119.6405 and 111.0759 and 80.15; in data set [1] (setting [15]) it was 146.327 and 79.29 and 120.4428 and 43.82 and 38.85 and 34.8 and 39.79 and 27.42 and 54.75 and 57.2548 and 73.63 and 60.04; in data set [1] (setting [16]), 59.3 and 27.29 and 6.353 and 109.5082 and 86.85 and 18.6677 and 42.58 and 43.47 and 28.34. Further, the PpIX accumulation is 22.67 and 25.67 and 27.67 and 38 and 36 and 43 in data set [2] (500 μM (each component), exposure time 4 hours); 39.67 and 42.67 and 45.67 and 49.33 and 51.33 in data set [2] (500 μM (each component), exposure time 5 hours); 52.33 and 55.33 and 61.33 and 61.67 and 62.67 in data set [2] (500 μM (each component), exposure time 6 hours); 32.33 and 45.33 and 43.33 and 38.33 in data set [2] (1000 μM (each component), exposure time 4 hours); 50.67 and 63.67 and 60.67 and 51.67 and 54.67 and 57.67 in data set [2] (1000 μM (each component), exposure time 5 hours); 63 and 79 and 72 and 65 and 68 and 75 in data set [2] (1000 μM (each component), exposure time 6 hours). Besides, the PpIX fluorescence in data set [3] (setting [17]) is −3.67 and −1.67 and −2.67 and 15.33 and 12.33 and 19.33 and 3.667 and 0.6667 and 5; in data set [3] (setting [18]), 7 and 9 and 6 and 27 and 24 and 32 and 2.667 (2×) and 4.667; in data set [3] (setting [19]) it was 22.67 and 25.67 and 27.67 and 38 and 36 and 43 and 5 and 4 and 6.667; in data set [3] (setting [20]), 1.33 and 9.33 and 14.33 and 12.33 and 15.33 and 16.33 and 8.333 and 6.333 and 9.667; in data set [3] (setting [21]), 14.33 and 25.33 and 26.33 and 27.33 and 28.33 and 32.33 and 12.33 and 10.33 and 9.333; in data set [3] (setting [22]), 32.33 and 45.33 (2×) and 43.33 and 38.33 (2×) and 12.33 (2×) and 12.

As for `CCc1c(O)c(O)cc[n+]1CC.[Cl-]` [CP94], the “effect of iron chelator on PDT effect of ALA and MAL” value in data set [4] (84BR, added to ALA or MAL) was “improved the PDT effect of both ALA and MAL in a concentration dependent manner”. Moreover, the “effect of iron chelator on PpIX levels” value in data set [3] (A431, added to the ALA or MAL incubation period) is listed as “improved PpIX levels”.

For `OO` [H2O2, hydrogen peroxide], in data set [5], the “cell viability by NRU” value is “significant reduction in cell viability”.

By viability is commonly meant a read-out of living cells in per cent, often relative to untreated cells. As to `COC(=O)CCC(=O)CN` [MAL, methyl aminolevulinate], the “cell viability following irradiation” value is 90.46% and 107.8629% and 109.4385% and 93.64% and 106.3667% in data set [6] (250 μM (combinations: 250 μM each)); 90.24% and 110.2301% and 98.69% and 113.2846% and 104.0869% and 74.42% in data set [6] (500 μM (combinations: 500 μM each)); 83.8% and 72.46% and 73.96% and 78.24% and 80.7% in data set [7]. Moreover, the viability at 250 µM in data set [6] (Homo sapiens, A-431, light or radiation study, 4 h, 250 μM (combinations: 250 μM each)) amounted to 110%. The viability at 500 µM in data set [7] (Homo sapiens, U-87 MG, light or radiation study, 4 h) worked out at 81.6%; in data set [4] (Homo sapiens, Fibroblast, light or radiation study, 4 h, read-out: cell viability following irradiation, 84BR, 500 μM, 4 hours in the dark, red light 37 J/cm^2, NRU, normalised against blank control cells), 80.9%. The cell viability in data set [1] (setting [8]) was 78.63 and 100.9237 and 89.58 and 117.6227 and 107.2209 and 106.7755 and 45.7309 and 63.26 and 57.86; in data set [1] (setting [9]) it was 92.9 and 73.67 and 65.45 and 62.6519 and 51.74 and 54.37 and 33.36 and 40.45 and 63.31 and 38.2134 and 54.71 and 47.85; in data set [1] (setting [10]), 90.46 and 107.8629 and 109.4385 and 93.64 and 106.3667 and 111.1665 and 115.1445 and 124.4547; in data set [1] (setting [11]) it was 103.8357 and 110.62 and 117.5455 and 82.92 and 108.8432 and 82.89 and 99.5 and 114.8824 and 75.71; in data set [1] (setting [12]), 40.78 and 47.71 and 49.73 and 71.71 and 76.89 and 81.87 and 74.41 and 55.25 and 104.0986 and 49.38 and 75.04 and 67.4; in data set [1] (setting [13]), 90.24 and 110.2301 and 98.69 and 113.2846 and 104.0869 and 74.42 and 104.4856 and 97.36 and 135.6405. Also, the cell viability was 113.344 and 113.9162 and 113.1911 and 108.366 and 113.6783 and 85.84 and 45.89 and 39.15 and 53.82 in data set [1] (setting [14]); 93.27 and 84.83 and 88.71 and 39.35 and 38.5 and 43.01 and 59.91 and 53.88 and 52.9157 and 75.55 and 92.95 and 90.52 in data set [1] (setting [15]); 91.78 and 85.804 and 110.3323 and 138.7061 and 132.5587 and 155.8802 and 165.2883 and 91.73 and 106.1163 in data set [1] (setting [16]). Besides, in data set [4] (Homo sapiens, Fibroblast, light or radiation study, 4 h, read-out: cell viability following irradiation, 84BR, 1000 μM, 4 hours in the dark, red light 37 J/cm^2, NRU, normalised against blank control cells), the viability at 1000 µM was 97.3%. In addition, the PpIX fluorescence in data set [3] (setting [17]) is −7.33 and 4.67 and −5.67 (2×) and −7.67 and 8.67 and −2.33 and 1.67 and 21; in data set [3] (setting [18]), −3.67 and −6.67 and 5.33 and −2.67 (2×) and 0.33 and 7.67 and −2.33 and 1.67; in data set [3] (setting [19]) it was −4.33 and −7.33 and 3.67 (2×) and 0.67 and 1.67 and 9 and 0 and 2; in data set [3] (setting [20]), 28 and 21 and 9.67 and 10.67 and 11.67 and −3.667 and 0.3333 and −8.333 and 51; in data set [3] (setting [21]), 45 and 50 and 42 and 22.67 and 25.67 and 20.67 and −3.333 and 0.6667 and −10.3333; in data set [3] (setting [22]) it was 70 and 74 and 64 and 34.33 and 39.33 and 30.33 and −2 and 4 and −8.333.
